Reference: BigSolDB 2.1

Oc1ccc(/C=C/c2cc(O)cc(O)c2)cc1
solubility (mole fraction)
Conditions | in THF | in acetone | in ethanol | in ethyl acetate | in isopropanol | in methanol | in n-butanol | in n-hexanol | in n-pentanol | in n-propanol
278.2 K | 0.104 | 0.0849 | 0.0117 | 0.0062 | 0.0053 | 0.0108 | 0.0041 | 0.004 | 0.004 | 0.0068
288.2 K | 0.106 | 0.0859 | 0.0139 | 0.0106 | 0.0062 | 0.012 | 0.0058 | 0.0052 | 0.0055 | 0.0088
298.2 K | 0.109 | 0.0866 | 0.0169 | 0.0164 | 0.009 | 0.0135 | 0.0083 | 0.0075 | 0.0093 | 0.0113
308.2 K | 0.112 | 0.0874 | 0.0198 | 0.0214 | 0.011 | 0.0151 | 0.0103 | 0.0087 | 0.0109 | 0.0128
318.2 K | 0.114 | 0.0886 | 0.0223 | 0.0254 | 0.0138 | 0.0166 | 0.0122 | 0.0108 | 0.0143 | 0.0153
